Laboratory results published in patent US5792767A, “Bicyclic substituted hexahydrobenz [e] isoindole alpha-1 adrenergic antagonists” (priority 1995, dated 1998).
Where a name gives a salt, the structure may show the parent alone.

Experiments:
[1] = target: T1, α-1A adrenoceptor (rat vas deferens) (Rattus norvegicus, UniProt P43140); assay: Functional antagonism of phenylephrine-induced contraction of rat vas deferens; format: cell-based; details: vs phenylephrine-induced contraction, Schild plot; read-out: pA2 Rat Vas Deferens [α-1A] (converted)
T1 construct: PE-induced contraction of rat vas deferens; from tissue; host or cells: isolated rat vas deferens
T1 sequence (P43140 1-466): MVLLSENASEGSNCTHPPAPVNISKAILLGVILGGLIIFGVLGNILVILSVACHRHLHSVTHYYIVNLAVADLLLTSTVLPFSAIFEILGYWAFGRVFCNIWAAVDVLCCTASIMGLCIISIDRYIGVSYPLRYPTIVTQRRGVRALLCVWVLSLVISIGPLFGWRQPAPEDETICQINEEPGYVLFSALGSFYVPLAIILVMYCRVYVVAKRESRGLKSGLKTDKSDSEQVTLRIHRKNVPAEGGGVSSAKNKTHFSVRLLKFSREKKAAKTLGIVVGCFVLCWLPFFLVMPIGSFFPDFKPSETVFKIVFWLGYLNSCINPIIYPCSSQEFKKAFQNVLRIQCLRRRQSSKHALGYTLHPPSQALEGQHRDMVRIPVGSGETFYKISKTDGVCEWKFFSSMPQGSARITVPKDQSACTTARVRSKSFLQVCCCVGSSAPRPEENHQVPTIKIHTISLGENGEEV
Excerpt: (§1) Functional assays indicative of pharmacologically defined α-1 adrenoceptors were used to further characterize compounds. Inhibition of phenylephrine (PE)-induced contraction of canine prostate smooth muscle can be correlated with α-1A adrenoceptor activation. […] For each of these models, agonist dose response curves were repeated against increasing concentrations of test agent to derive a Schild plot [log ([…]) against log (molarity of test agent)] to determine the pA2.

[2] = target: T2, α-1A adrenoceptor (dog prostate); assay: Functional antagonism of phenylephrine-induced contraction of canine prostate strips; format: cell-based, dog (canine); details: vs phenylephrine-induced contraction, Schild plot; read-out: pA2 Dog Prostate [α-1A] (converted)
T2 construct: from tissue; host or cells: canine prostate strips
T2 sequence (P35348 whole entry): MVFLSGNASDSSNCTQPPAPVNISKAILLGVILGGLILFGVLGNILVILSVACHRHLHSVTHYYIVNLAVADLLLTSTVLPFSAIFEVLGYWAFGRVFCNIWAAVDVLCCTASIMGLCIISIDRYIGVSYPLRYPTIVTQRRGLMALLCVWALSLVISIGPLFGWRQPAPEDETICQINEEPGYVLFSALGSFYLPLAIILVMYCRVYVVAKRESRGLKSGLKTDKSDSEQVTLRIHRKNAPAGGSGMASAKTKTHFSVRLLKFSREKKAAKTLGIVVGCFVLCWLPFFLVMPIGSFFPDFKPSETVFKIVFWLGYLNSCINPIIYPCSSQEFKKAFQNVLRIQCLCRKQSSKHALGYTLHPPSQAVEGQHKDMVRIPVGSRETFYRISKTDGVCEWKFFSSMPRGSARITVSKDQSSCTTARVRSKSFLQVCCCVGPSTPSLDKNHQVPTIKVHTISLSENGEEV
Excerpt: Canine prostate strips were used in vitro as previously described (Hieble, J. P., Boyce, A. J. and Caine, M., Fed. Proc., 45: 2609-2614 (1986)), to determine antagonist potencies against phenylephrine-induced contractions.
as §1

[3] = target: T3, α-1B adrenoceptor (rat spleen) (Rattus norvegicus, UniProt P15823); assay: Functional antagonism of phenylephrine-induced contraction of rat spleen; format: cell-based; details: vs phenylephrine-induced contraction, Schild plot; for Kb: read-out: pA2 Rat Spleen [α-1B] (converted)
T3 construct: PE-induced contraction of rat spleen; from tissue; host or cells: isolated rat spleen
T3 sequence (P15823 1-515): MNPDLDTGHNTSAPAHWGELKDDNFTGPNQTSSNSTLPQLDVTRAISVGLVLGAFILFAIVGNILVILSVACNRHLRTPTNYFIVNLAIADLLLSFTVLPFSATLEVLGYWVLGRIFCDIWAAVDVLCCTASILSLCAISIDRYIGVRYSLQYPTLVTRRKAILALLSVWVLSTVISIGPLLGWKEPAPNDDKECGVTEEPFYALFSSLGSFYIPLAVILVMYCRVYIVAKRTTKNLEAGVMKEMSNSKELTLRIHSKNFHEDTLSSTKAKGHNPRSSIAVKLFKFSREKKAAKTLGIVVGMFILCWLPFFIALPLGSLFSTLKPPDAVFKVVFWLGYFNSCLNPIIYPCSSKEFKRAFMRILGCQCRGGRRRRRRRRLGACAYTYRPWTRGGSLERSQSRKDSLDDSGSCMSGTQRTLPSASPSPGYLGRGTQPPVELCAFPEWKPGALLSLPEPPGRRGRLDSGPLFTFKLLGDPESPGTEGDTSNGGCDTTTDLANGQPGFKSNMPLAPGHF
Excerpt: as §1

Kb [2] [nM] | SMILES | other results
0.398 | COc1cccc2c1CC[C@H]1CN(CCn3c(=O)[nH]c4c(C)c(OC)ccc4c3=O)C[C@@H]21 [Example 77, 3-[2-((3aR,9bR)cis-6-Methoxy-2,3,3a,4,59b-hexahydro-[1H]-benz[e]isoindol-1-yl)ethyl]-7-methoxy-8-methyl-quinazoline-2(1H,3H)-dione hydrochloride] | Kb [1]: 0.479 nM; Kb [3]: 2.95 nM
0.661 | COc1cccc2c1CC[C@H]1CN(CCn3c(=O)[nH]c4cc(NC(C)=O)ccc4c3=O)C[C@@H]21 [Example 75, 3-[2-((3aR,9bR)cis-6-Methoxy-2,3,3a,4,5,9b-hexahydro-[1H]-benz[e]isoindolyl-1-yl)ethyl]-7-acetamidoquinazoline-2,4(1H,3H)-dione hydrochloride] | –
1.86 | COc1cccc2c1CC[C@H]1CN(CCn3c(=O)[nH]c4cc(NS(C)(=O)=O)ccc4c3=O)C[C@@H]21 [Example 76, 3-[2-((3aR,9bR)cis-6-Methoxy-2,3,3a,4,5,9b-hexahydro-1WH-benz[e]isoindol-1-yl)lethyl]-7-methanesulfamlquinazoline-2,4(1H,3H)-dione hydrochloride] | –
1.95 | COc1cccc2c1CC[C@H]1CN(CCn3c(=O)[nH]c4ccc5c(c4c3=O)OCO5)C[C@@H]21 [Example 53, hydrochloride] | –
1.35 | CCc1c(OC)sc2c(=O)n(CCN3C[C@@H]4CCc5c(OC)cccc5[C@@H]4C3)c(=O)[nH]c12 [Example 63, hydrochloride] | –
1.86 | COc1cccc2c1CC[C@H]1CN(CCn3c(=O)[nH]c4ncncc4c3=O)C[C@@H]21 [Example 88, 3-[2-((3aR,9bR)cis-6-Methoxy-2,3,3a,4,5,9b-hexahydro-[1H]-benz[e]isoindol-1-yl)ethyl]-p-rimidino[4,5-d]pyrimidine-2,4(1H,3H)-dione hydrochloride] | –
1.12 | COc1cccc2c1CC[C@H]1CN(CCn3c(=O)[nH]c4cc(C(=O)O)ccc4c3=O)C[C@@H]21 [Example 70, hydrochloride] | –
2.29 | CCOC(=O)c1c[nH]c2[nH]c(=O)n(CCN3C[C@@H]4CCc5c(OC)cccc5[C@@H]4C3)c(=O)c12 [Example 61, hydrochloride] | –
1.55 | COc1cccc2c1CC[C@H]1CN(CCn3c(=O)[nH]c4c(C)c(OC)sc4c3=O)C[C@@H]21 [Example 64, 3-[2-((3aR,9bR)-cis-6-Methoxy-2,3,3a,4,5,9b-hexahydro-[1H]-benz[e]isoindol-1-yl)ethyl]-6-methoxy-7-methylthieno [3,2-d]primidine-2,4(1H,3H)-dione hydrochloride] | –
0.708 | COC(=O)c1cc2[nH]c(=O)n(CCN3C[C@@H]4CCc5c(OC)cccc5[C@@H]4C3)c(=O)c2s1 [Example 60, hydrochloride] | –
1.26 | COc1cccc2c1CC[C@H]1CN(CCn3cnc4c(OC)c(OC)ccc4c3=O)C[C@@H]21 [Example 58, dihydrochloride] | –

The remaining lines, values behind:

SMILES | Kb [2] [nM] | other results
COc1cccc2c1CC[C@H]1CN(CCn3c(=O)[nH]c4c(C)csc4c3=O)C[C@@H]21 (relative stereo) [Example 2, hydrochloride] | 0.692 | Kb [1]: 3.98 nM; Kb [3]: 6.92 nM
COc1cccc2c1CC[C@H]1CN(CCn3c(=O)[nH]c4ccsc4c3=O)C[C@@H]21 (relative stereo) [Example 5, hydrochloride] | 0.692 | Kb [1]: 6.46 nM; Kb [3]: 4.37 nM
COc1cc2ncn(CCN3C[C@@H]4CCc5c(OC)cccc5[C@@H]4C3)c(=O)c2cc1OC (relative stereo) [Example 33, 3-[2-(cis-6-Methoxy-2,3,3a,4,5,9b-hexahydro-[1H]-benz[e]isoindol-1-yl)ethyl]-6,7-dimethoxy-quinazoline-4(3H)-one dihydrochloride] | – | Kb [1]: 1.12 nM; Kb [3]: 20.4 nM
COc1cccc2c1CC[C@H]1CN(CCn3cnc4ccccc4c3=O)C[C@@H]21 (relative stereo) [Example 34, dihydrochloride] | 1.05 | –
COc1cc2c(=O)n(CCN3C[C@@H]4CCc5c(OC)cccc5[C@@H]4C3)c(=O)[nH]c2cc1Cl [Example 49, hydrochloride] | 12 | –
COc1cccc2c1CC[C@H]1CN(CCn3c(=O)[nH]c4cc(C(=O)N(C)C)ccc4c3=O)C[C@@H]21 [Example 47, 3-[2-((3aR ,9bR)-cis-6-Methoxy-2,3,3a,4,5,9b-hexahydro-[1H]-benz[e]isoindol-1-yl)ethyl]-7-(N,N'-dimethyl)carbamylguinazoline-2,4(1H,3H)-dione hydrochloride] | 1.62 | –
O=c1[nH]c2sccc2c(=O)n1CCN1C[C@@H]2CCc3c(O)cccc3[C@@H]2C1 (relative stereo) [Example 35, hydrobromide] | 87.1 | –
COc1cccc2c1CC[C@H]1CN(CCn3c(=O)[nH]c4cc(-c5ccccc5)sc4c3=O)C[C@@H]21 (relative stereo) [Example 32, hydrochloride] | 33.9 | –
COc1cccc2c1CC[C@H]1CN(CCn3c(=O)[nH]c4c(C)cccc4c3=O)C[C@@H]21 (relative stereo) [Example 19, hydrochloride] | 5.01 | –
COc1cc2ncn(CCN3C[C@@H]4CCc5c(OC)cccc5[C@@H]4C3)c(=O)c2cc1OC [Example 42, dihydrochloride] | – | Kb [1]: 5.75 nM; Kb [3]: 39.8 nM
COc1cccc2c1CC[C@H]1CN(CCn3c(=O)[nH]c4cc5c(cc4c3=O)OCO5)C[C@@H]21 [Example 37, hydrochloride] | 0.24 | –
COc1cccc2c1CC[C@H]1CN(CCn3c(=O)[nH]c4c(Cl)c(OC)c(Cl)cc4c3=O)C[C@@H]21 [Example 48, hydrochloride] | 6.46 | –
COc1cc2[nH]c(=O)n(CCN3C[C@@H]4CCc5c(OC)cccc5[C@@H]4C3)c(=O)c2cc1OC (relative stereo) [Example 10, hydrochloride] | – | Kb [3]: 129 nM
COc1cc2[nH]c(=O)n(CCN3C[C@@H]4CCc5c(OC)cccc5[C@@H]4C3)c(=O)c2cc1OC [Example 39, hydrochloride] | – | pA2 Rat Spleen [α-1B] [3]: 7.52
COC(=O)c1ccc2c(=O)n(CCN3C[C@@H]4CCc5c(OC)cccc5[C@@H]4C3)c(=O)[nH]c2c1 (relative stereo) [Example 14, hydrochloride] | 0.977 | –
COc1cccc2c1CC[C@H]1CN(CCn3c(=O)[nH]c4cccc(Cl)c4c3=O)C[C@@H]21 (relative stereo) [Example 23, hydrochloride] | 4.79 | –
COc1cccc2c1CC[C@H]1CN(CCn3c(=O)[nH]c4c(cnn4C)c3=O)C[C@@H]21 (relative stereo) [Example 28, hydrochloride] | 4.79 | –
COc1cccc2c1CC[C@H]1CN(CCn3c(=O)[nH]c4cc5c(cc4c3=O)OCCO5)C[C@@H]21 [Example 38, hydrochloride] | 0.229 | –
COc1cccc2c1CC[C@H]1CN(CCn3c(=O)[nH]c4ccncc4c3=O)C[C@@H]21 (relative stereo) [Example 27, dihydrochloride] | 2.34 | –
COc1cccc2c1CC[C@H]1CN(CCn3c(=O)[nH]c4ccc(F)cc4c3=O)C[C@@H]21 (relative stereo) [Example 15, 3-[2-(cis-6-Methoxy-2,3,3a,4,5,9b-hexahydro-[1H]-benz[e]isoindol-1-yl)ethyl]-6-fluoro-quinazoline-2,4(1H,3H)-dione hydrochloride] | 5.37 | –
COc1cccc2c1CC[C@H]1CN(CCn3c(=O)[nH]c4ncccc4c3=O)C[C@@H]21 (relative stereo) [Example 21, 3-[2-(cis-6-Methoxy-2,3 3a,4,5,9b-hexahydro-[1H]-benz[e]isoindol-1-yl)ethyl]-pyrido[2,3-d]pyrimidine-2,4(1H,3H)-dione hydrochloride] | 13.2 | –
